{"source": "patent US11179384B2", "about": "“Treatment of nonalcoholic fatty liver disease” (TAKEDA GMBH, priority 2016, dated 2021)", "key": {"Homozygous LDLR-KO mice [1]": {"tested_on": "Homozygous LDLR-KO mice", "experiment": "Prophylactic effects in a mouse model of NASH (LDLR-KO mice, mCDAA diet)", "assay_type": "in vivo", "conditions": "LDLR-KO mice on mCDAA diet, 1, 3 and 10 mg/kg p.o. QD for 7 weeks", "procedure": "Prophylactic effects of Compound A on parameters such as a) hepatic fibrosis formation, b) hepatic triglyceride formation and c) plasma ALT reduction were examined in a rodent model of NASH.\nHomozygous low-density lipoprotein receptor knockout (LDLR-KO) mice were fed with chow or modified choline deficient, L-amino acid-defined (mCDAA) diet (A08111307, Research Diets, USA). After 1 week under chow or mCDAA diet, the mice were orally dosed with Compound A (1, 3 and 10 mg/5 ml/kg, QD, n=10; suspension in 0.5 w/v % methylcellulose suspension) for 7 weeks."}, "Homozygous LDLR-KO mice [2]": {"tested_on": "Homozygous LDLR-KO mice", "experiment": "Therapeutic effects in a mouse model of NASH (LDLR-KO mice, mCDAA diet, after fibrosis formation)", "assay_type": "in vivo", "conditions": "6 weeks mCDAA diet then 4 and 8 mg/kg p.o. QD for 10 weeks (therapeutic)", "procedure": "To evaluate therapeutic potential of Compound A, effects of Compound A were additionally examined after hepatic fibrosis formation. Homozygous LDLR-KO mice were fed with chow or mCDAA diet (A08111307, Research Diets, USA). After 6 week under chow or mCDAA diet, the mice were orally dosed with Compound A (4, and 8 mg/5 mL/kg, QD, n=12; suspension in 0.5 w/v % methylcellulose solution) for 10 weeks."}, "[3]": {"experiment": "Phase 1 clinical studies (single rising dose and multiple rising dose)", "assay_type": "in vivo, humans", "description": "Compound A differs from other development candidates intended for the treatment of NAFLD/NASH in that it exerts its effects via anti-inflammatory, anti-fibrotic and anti-steatotic mode of action. […] It is furthermore believed that all of these effects observed in in vitro and animal experiments will translate in corresponding effects in the clinical setting in humans."}}}
{"smiles": "CCOc1cc2c(cc1OC)C(c1ccc(=O)n(C)c1)=N[C@@H]1CC[C@@H](O)C[C@H]21", "note": "[Compound A, 5-((2R,4aR,10bR)-9-Ethoxy-2-hydroxy-8-methoxy-1,2,3,4,4a,10b-hexahydro-phenanthridin-6-yl)-1-methyl-1H-pyridin-2-one]", "values": [{"measurement": "Body weight", "setting": "Homozygous LDLR-KO mice [1]", "result": "slightly decreased"}, {"measurement": "Hepatic triglyceride (TG) content", "setting": "Homozygous LDLR-KO mice [1]", "result": "significantly reduced"}, {"measurement": "Liver weight", "setting": "Homozygous LDLR-KO mice [1]", "result": "dose dependently decreased"}, {"measurement": "epididymal white adipose tissue (surrogate for body fat mass)", "setting": "Homozygous LDLR-KO mice [1]", "result": "dose dependently decreased"}, {"measurement": "food intake", "setting": "Homozygous LDLR-KO mice [1]", "result": "no change"}, {"measurement": "plasma ALT levels", "setting": "Homozygous LDLR-KO mice [1]", "result": "significantly reduced"}, {"measurement": "hepatic fibrosis area", "setting": "Homozygous LDLR-KO mice [1]; started after 1 week of diet", "result": "dose-dependent reduction"}, {"measurement": "hepatic TG content", "setting": "Homozygous LDLR-KO mice [2]", "result": "significantly reduced from the initial value"}, {"measurement": "hepatic fibrosis area", "setting": "Homozygous LDLR-KO mice [2]", "result": "reduction"}, {"measurement": "PDE4 inhibitor specific adverse events (diarrhea, nausea)", "setting": "[3]; Phase 1, single dose 0.05 to 0.85 mg, multiple dose 0.05 to 0.8 mg 7 days, 0.35 and 0.8 mg up to 14 days", "result": "no PDE4 inhibitor specific adverse events"}, {"measurement": "safety and pharmacokinetic profile", "setting": "[3]; Phase 1 single rising dose and multiple rising dose studies", "result": "very favorable"}]}
